Data published in paper PMC2768106, “Effects of VEGFR-3 phosphorylation inhibitor on lymph node metastasis in an orthotopic diffuse-type gastric carcinoma model” (British Journal of Cancer, 2009).

Target: T1, VEGFR-3 (vascular endothelial growth factor receptor-3, Flt-4) (Homo sapiens, UniProt P35916)
T1 construct: gene FLT4
Assay: cell-free kinase (autophosphorylation) assay; also HUVEC cellular VEGFR-3 phosphorylation, IC50 […]
Assay type: biochemical

T1 sequence (P35916 25-1363): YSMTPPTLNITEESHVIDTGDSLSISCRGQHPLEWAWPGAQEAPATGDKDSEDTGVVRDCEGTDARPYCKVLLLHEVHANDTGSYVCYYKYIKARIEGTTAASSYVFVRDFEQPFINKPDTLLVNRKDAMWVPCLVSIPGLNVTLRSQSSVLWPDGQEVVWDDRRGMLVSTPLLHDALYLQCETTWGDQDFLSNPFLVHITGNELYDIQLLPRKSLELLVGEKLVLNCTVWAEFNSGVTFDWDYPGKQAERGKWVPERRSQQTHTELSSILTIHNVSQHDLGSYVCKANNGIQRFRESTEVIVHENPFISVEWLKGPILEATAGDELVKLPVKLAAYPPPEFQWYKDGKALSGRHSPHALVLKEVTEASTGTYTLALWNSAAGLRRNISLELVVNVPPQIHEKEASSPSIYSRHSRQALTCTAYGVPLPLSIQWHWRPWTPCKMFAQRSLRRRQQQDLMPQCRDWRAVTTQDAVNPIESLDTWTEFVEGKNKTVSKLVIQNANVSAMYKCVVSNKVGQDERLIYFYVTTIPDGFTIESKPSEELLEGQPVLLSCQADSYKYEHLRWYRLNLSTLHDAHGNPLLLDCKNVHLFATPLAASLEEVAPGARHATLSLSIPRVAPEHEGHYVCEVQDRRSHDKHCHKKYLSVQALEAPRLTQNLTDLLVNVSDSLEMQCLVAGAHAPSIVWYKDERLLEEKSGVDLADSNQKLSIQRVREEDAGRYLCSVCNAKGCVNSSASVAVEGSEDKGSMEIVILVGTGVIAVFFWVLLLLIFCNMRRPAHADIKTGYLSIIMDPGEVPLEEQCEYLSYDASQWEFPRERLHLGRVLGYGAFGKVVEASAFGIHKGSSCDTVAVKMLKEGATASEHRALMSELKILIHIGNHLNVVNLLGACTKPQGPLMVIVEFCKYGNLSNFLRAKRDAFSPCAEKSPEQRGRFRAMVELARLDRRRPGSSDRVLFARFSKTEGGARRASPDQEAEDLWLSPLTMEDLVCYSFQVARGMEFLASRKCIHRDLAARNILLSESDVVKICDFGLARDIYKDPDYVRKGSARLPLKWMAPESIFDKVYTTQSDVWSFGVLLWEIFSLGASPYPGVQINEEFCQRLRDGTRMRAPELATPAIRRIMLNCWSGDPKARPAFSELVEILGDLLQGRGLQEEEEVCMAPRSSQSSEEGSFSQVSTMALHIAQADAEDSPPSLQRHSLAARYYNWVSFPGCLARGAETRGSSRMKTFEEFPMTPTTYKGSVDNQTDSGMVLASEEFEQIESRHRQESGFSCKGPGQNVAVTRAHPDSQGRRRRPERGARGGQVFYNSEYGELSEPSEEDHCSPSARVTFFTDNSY

SMILES: COc1cc2c(Oc3ccc(Nc4ccc(C(C)(C)C)cc4)cc3)ccnc2cc1OCCNCCO [Ki23057]
- IC50: 4.3 nM
